Test results: BigSolDB 2.1

N[C@@H](CC(=O)N1CCn2c(nnc2C(F)(F)F)C1)Cc1cc(F)c(F)cc1F
Settings	solubility (mole fraction)
in THF, 278.15 K	0.0212
in THF, 283.15 K	0.0274
in THF, 288.15 K	0.0322
in THF, 293.15 K	0.0363
in THF, 298.15 K	0.0463
in THF, 303.15 K	0.0554
in THF, 308.15 K	0.0625
in THF, 313.15 K	0.0756
in THF, 318.15 K	0.0933
in THF, 323.25 K	0.114
in acetonitrile, 278.15 K	0.0265
in acetonitrile, 283.15 K	0.0354
in acetonitrile, 288.15 K	0.0432
in acetonitrile, 293.15 K	0.0536
in acetonitrile, 298.15 K	0.0576
in acetonitrile, 303.15 K	0.0681
in acetonitrile, 308.15 K	0.0888
in acetonitrile, 313.15 K	0.105
in acetonitrile, 318.15 K	0.128
in acetonitrile, 323.15 K	0.156
in ethanol, 273.15 K	0.00768
in ethanol, 278.15 K	0.0108
in ethanol, 283.15 K	0.0138
in ethanol, 288.15 K	0.0179
in ethanol, 293.15 K	0.0233
in ethanol, 298.15 K	0.0298
in ethanol, 303.15 K	0.0363
in ethanol, 308.15 K	0.0451
in ethanol, 313.15 K	0.0606
in ethanol, 318.15 K	0.078
in ethyl acetate, 278.15 K	0.00986
in ethyl acetate, 283.15 K	0.0117
in ethyl acetate, 288.15 K	0.014
in ethyl acetate, 293.15 K	0.0167
in ethyl acetate, 298.15 K	0.02
in ethyl acetate, 303.15 K	0.0242
in ethyl acetate, 308.15 K	0.0286
in ethyl acetate, 313.15 K	0.0353
in ethyl acetate, 318.15 K	0.0435
in ethyl acetate, 323.15 K	0.0565
in isobutanol, 278.15 K	0.0101
in isobutanol, 283.15 K	0.0123
in isobutanol, 288.15 K	0.014
in isobutanol, 293.15 K	0.0158
in isobutanol, 298.15 K	0.0191
in isobutanol, 303.15 K	0.0216
in isobutanol, 308.15 K	0.0255
in isobutanol, 313.15 K	0.0301
in isobutanol, 318.15 K	0.0334
in isobutanol, 323.15 K	0.0379
in isopentanol, 278.15 K	0.00453
in isopentanol, 283.15 K	0.0054
in isopentanol, 288.15 K	0.00647
in isopentanol, 293.15 K	0.00801
in isopentanol, 298.15 K	0.0104
in isopentanol, 303.15 K	0.0123
in isopentanol, 308.15 K	0.0154
in isopentanol, 313.15 K	0.0184
in isopentanol, 318.15 K	0.0232
in isopentanol, 323.15 K	0.0316
in isopropanol, 273.15 K	0.00439
in isopropanol, 278.15 K	0.00482
in isopropanol, 283.15 K	0.00579
in isopropanol, 288.15 K	0.00703
in isopropanol, 293.15 K	0.00857
in isopropanol, 298.15 K	0.0103
in isopropanol, 303.15 K	0.0122
in isopropanol, 308.15 K	0.0139
in isopropanol, 313.15 K	0.0162
in isopropanol, 318.15 K	0.0188
in methyl acetate, 278.15 K	0.0397
in methyl acetate, 283.15 K	0.05
in methyl acetate, 288.15 K	0.0545
in methyl acetate, 293.15 K	0.063
in methyl acetate, 298.15 K	0.0728
in methyl acetate, 303.15 K	0.0835
in methyl acetate, 308.15 K	0.0954
in methyl acetate, 313.15 K	0.111
in methyl acetate, 318.15 K	0.126
in methyl acetate, 323.15 K	0.139
in n-butanol, 278.15 K	0.0105
in n-butanol, 283.15 K	0.0129
in n-butanol, 288.15 K	0.0141
in n-butanol, 293.15 K	0.0177
in n-butanol, 298.15 K	0.0208
in n-butanol, 303.15 K	0.0243
in n-butanol, 308.15 K	0.0262
in n-butanol, 313.15 K	0.0328
in n-butanol, 318.15 K	0.0382
in n-butanol, 323.15 K	0.0452
in n-propanol, 278.15 K	0.00795
in n-propanol, 283.15 K	0.011
in n-propanol, 288.15 K	0.0123
in n-propanol, 293.15 K	0.0183
in n-propanol, 298.15 K	0.022
in n-propanol, 303.15 K	0.0278
in n-propanol, 308.15 K	0.0387
in n-propanol, 313.1 K	0.0433
in n-propanol, 318.15 K	0.0572
in n-propanol, 323.15 K	0.0804
in sec-butanol, 278.15 K	0.00274
in sec-butanol, 283.15 K	0.00346
in sec-butanol, 288.15 K	0.0047
in sec-butanol, 293.15 K	0.00513
in sec-butanol, 298.15 K	0.00739
in sec-butanol, 303.15 K	0.00958
in sec-butanol, 308.15 K	0.0115
in sec-butanol, 313.15 K	0.0142
in sec-butanol, 318.15 K	0.0194
in sec-butanol, 323.15 K	0.0224
in water, 278.15 K	0.000281
in water, 283.15 K	0.000319
in water, 288.15 K	0.000349
in water, 293.15 K	0.000376
in water, 298.15 K	0.00042
in water, 303.15 K	0.000458
in water, 308.15 K	0.000499
in water, 313.15 K	0.000542
in water, 318.15 K	0.000574
in water, 323.15 K	0.000633
